The values below come from patent US20150313217A1, “CONTROL AGENT FOR PLANT PEST AND/OR PLANT DISEASE” (RIKEN, priority 2012, published 2015).

The data set is described as follows: Aggregation and precipitation of polyglycerin fatty acid ester on storage with oxoacid or organic solvent (Example 17). Also on record: key: 1: equivalent aggregation and precipitation to those of the reference were observed; 2: the aggregation and precipitation were approximately ¾ of those of the reference; 3: the aggregation and precipitation were approximately ½ of those of the reference; 4: the aggregation and precipitation were approximately ¼ of those of the reference; 5: no aggregate and precipitate were observed. To be noted: cool dark place, two months, visual. The class given is physicochemical. The method, then: A polyglycerin fatty acid ester and phosphoric acid were weighed using an electronic balance and put into a cylindrical plastic container (diameter of […]×height of 77 mm, volume 25 ml) in such a manner that the mixing ratio was 90:10 (mass ratio) (10 mass % of phosphoric acid (approximately 11.1 parts by mass of phosphoric acid per 100 parts by mass of the polyglycerin fatty acid) was added) or 99.9:0.1 (mass ratio) (0.1 mass % of phosphoric acid (approximately 0.1 parts by mass of phosphoric acid per 100 parts by mass of the polyglycerin fatty acid) was added). The total amount was adjusted to 20 ml. Then, the preparation was made uniform by sufficient stirring and mixing. The resultant was left standing in a cool dark place. Two months later, the degree of aggregation and precipitation of the polyglycerin fatty acid ester was visually determined based on the following determination criteria. […] Further, as a reference, a test was conducted by the same method as above using only a polyglycerin fatty acid ester to which no oxoacid or organic solvent was added. Index 1: equivalent aggregation and precipitation to those of the reference were observed. Index 2: the aggregation and precipitation were approximately ¾ of those of the reference.

Where [1] appears, read: adding ratio 0.1 % to polyglycerin fatty acid ester.
Where [2] appears, read: adding ratio 10.0 % to polyglycerin fatty acid ester.

With `CCO` [ethyl alcohol], the “Result (index): degree of aggregation and precipitation of the polyglycerin fatty acid ester” value (“Result (index): degree” below) was found to be 4 under setting [1] and 4 under setting [2].

For the compound `O=P(O)(O)O` [phosphoric acid], the “Result (index): degree” value was determined as 4 under setting [1] and 5 under setting [2].

Consider `CC(=O)O` [acetic acid], for which the “Result (index): degree” value under setting [1] is 4; the “Result (index): degree” value under setting [2] was 5.

Turning to `CC(O)C(=O)O` (stereo not shown) [lactic acid], the “Result (index): degree” value turned out to be 4 under setting [1] and 5 under setting [2].

Regarding `CCCCCC` [normal hexane], the “Result (index): degree” value reads like this: under setting [1], 3; under setting [2], 4.
